The values that follow come from patent US11214578B2, “Urea/carbamates FAAH MAGL or dual FAAH/MAGL inhibitors and uses thereof” (Northeastern University, priority 2014, dated 2022).

Common to all, as to format: biochemical
The target in one assay is T1, ΔTM rat FAAH (Rattus norvegicus, UniProt P97612).
T1 construct: Preparation of Transmembrane Domain-Deleted Rat FAAH (ΔTM rFAAH); made in house; host or cells: E. coli
T1 sequence (P97612 30-579 limits assumed): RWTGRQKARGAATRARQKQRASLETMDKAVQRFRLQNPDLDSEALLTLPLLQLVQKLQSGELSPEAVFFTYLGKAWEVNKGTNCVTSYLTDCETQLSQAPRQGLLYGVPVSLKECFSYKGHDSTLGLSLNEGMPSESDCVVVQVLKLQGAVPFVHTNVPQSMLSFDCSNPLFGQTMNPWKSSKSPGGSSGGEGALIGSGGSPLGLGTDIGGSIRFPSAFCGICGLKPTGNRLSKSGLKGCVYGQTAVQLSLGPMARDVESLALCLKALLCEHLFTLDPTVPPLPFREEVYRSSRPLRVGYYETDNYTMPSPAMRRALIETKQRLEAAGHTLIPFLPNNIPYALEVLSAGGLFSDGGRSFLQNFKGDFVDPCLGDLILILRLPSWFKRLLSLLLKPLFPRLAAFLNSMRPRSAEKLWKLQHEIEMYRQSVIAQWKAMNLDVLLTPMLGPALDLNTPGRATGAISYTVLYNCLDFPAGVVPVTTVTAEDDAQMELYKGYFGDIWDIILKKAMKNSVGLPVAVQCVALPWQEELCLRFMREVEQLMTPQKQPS
As to the kind of experiment: Fluorescent assay protocol for ΔTM rat FAAH (AAMCA substrate). Conditions: 15 min preincubation, read-out: IC50 rFAAH. A digest of the protocol: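 ΔTM rat FAAH (15 μg) was pre-incubated 15 min at 25° C with compound (screening at 1, 10 and 100 μM), then reacted with the fluorigenic substrate AAMCA. Percent inhibition came from fluorescence at 3 h (linear kinetics) relative to no-inhibitor controls, in triplicate.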

A further assay has as its target T2, Human FAAH (MBPΔTMhFAAH) (Homo sapiens, UniProt O00519).
T2 construct: made in house; host or cells: E. coli (pMALcE4 vector)
T2 sequence (O00519 30-579 limits assumed): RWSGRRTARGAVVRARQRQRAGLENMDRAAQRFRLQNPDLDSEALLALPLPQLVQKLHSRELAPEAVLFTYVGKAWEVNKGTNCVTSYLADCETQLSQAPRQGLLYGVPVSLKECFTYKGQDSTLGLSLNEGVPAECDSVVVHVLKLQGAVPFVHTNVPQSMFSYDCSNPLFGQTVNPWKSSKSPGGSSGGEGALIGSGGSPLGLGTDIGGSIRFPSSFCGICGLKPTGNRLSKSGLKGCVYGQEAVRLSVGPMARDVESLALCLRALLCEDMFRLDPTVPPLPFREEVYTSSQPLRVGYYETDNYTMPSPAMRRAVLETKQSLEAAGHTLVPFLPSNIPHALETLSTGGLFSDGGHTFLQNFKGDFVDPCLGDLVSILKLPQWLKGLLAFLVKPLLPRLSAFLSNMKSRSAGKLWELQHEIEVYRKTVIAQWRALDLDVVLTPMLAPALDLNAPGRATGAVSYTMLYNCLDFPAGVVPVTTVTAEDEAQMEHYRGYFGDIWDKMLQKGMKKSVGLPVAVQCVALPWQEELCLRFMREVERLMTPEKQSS
The assay can be described thus: Fluorescent assay protocol for hFAAH. Conditions: human FAAH (MBP fusion, ΔTM), procedure as for rFAAH. In a few lines:
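MBP-fused ΔTM human FAAH from E. coli, pre-incubated 15 min at 25 °C with compound in 50 mM HEPES, 1 mM EDTA, 0.1% BSA, pH 7.4 (DMSO below 8%). Substrate AAMCA 20 μM (2×Km); fluorescence (ex 360/em 460) at 3 h gave % inhibition vs uninhibited control, triplicate, IC50 fitted.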

Another assay deals with T3, Rat MAGL (rMAGL) (Rattus norvegicus, UniProt Q8R431).
T3 construct: made in house; host or cells: E. coli
T3 sequence (Q8R431 1-303): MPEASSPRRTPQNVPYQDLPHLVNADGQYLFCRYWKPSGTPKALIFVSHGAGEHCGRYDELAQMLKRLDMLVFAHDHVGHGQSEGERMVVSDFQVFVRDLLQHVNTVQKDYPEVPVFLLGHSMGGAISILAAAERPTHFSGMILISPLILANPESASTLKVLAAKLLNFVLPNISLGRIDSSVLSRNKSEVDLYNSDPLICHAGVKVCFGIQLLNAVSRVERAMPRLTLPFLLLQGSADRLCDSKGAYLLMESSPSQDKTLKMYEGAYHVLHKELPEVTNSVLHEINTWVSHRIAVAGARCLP
As to the kind of experiment: Fluorescent assay protocol for rMAGL. Conditions: recombinant rat MAGL, procedure as for hMAGL; read-out: IC50 rMAGL. In a few lines:
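Rat MAGL run as for the human enzyme: AHMMCE substrate hydrolysis to fluorescent coumarin followed at 25° C. for 120 min, read every 15 min at 360/460 nm.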

The target of a further assay is T4, Human MAGL (hMAGL) (Homo sapiens, UniProt Q99685).
T4 construct: hexahistidine; made in house; host or cells: E. coli
T4 sequence (Q99685 1-303): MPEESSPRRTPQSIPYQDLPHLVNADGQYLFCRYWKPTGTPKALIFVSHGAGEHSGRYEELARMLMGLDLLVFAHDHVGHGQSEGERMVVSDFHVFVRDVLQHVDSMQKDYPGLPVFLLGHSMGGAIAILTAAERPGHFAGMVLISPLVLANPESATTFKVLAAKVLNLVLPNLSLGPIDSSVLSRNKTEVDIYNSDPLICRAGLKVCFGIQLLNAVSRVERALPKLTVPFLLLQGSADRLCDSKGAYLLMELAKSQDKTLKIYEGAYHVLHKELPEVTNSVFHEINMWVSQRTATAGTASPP
The assay can be described thus: Fluorescent assay protocol for hMAGL (AHMMCE substrate). Conditions: recombinant human MAGL, AHMMCE substrate, 15 min preincubation; read-out: IC50 hMAGL. A digest of the protocol: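 Hydrolysis of AHMMCE by human MAGL was monitored at 25°C for 120 min, with fluorescence at 360/460 nm recorded every 15 min and converted to 4-methylcoumarin using external standards. IC50 values were derived from triplicate wells at each inhibitor concentration.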

For orientation: IC50 means the concentration needed to halve the response being measured.

With `O=C(Nc1cccnc1)N1CC(OCc2ccc(Br)cc2)C1` [Example 82, 3-(4-Bromobenzyloxy)-N-(pyridin-3-yl)azetidine-1-carboxamide], the IC50 at ΔTM rat FAAH was 110 to 1000 nM; on Human FAAH (MBPΔTMhFAAH), 110 to 1000 nM; at Rat MAGL (rMAGL), over 1000 nM; at Human MAGL (hMAGL), over 1000 nM.

`O=C(N1CC(N2CCC(c3ccccc3)CC2)C1)n1cnc2ccccc21` [Example 83, (1H-Benzo[d]imidazol-1-yl)(3-(4-phenylpiperidin-1-yl)azetidin-1-yl)methanone]: the IC50 is 10 to 100 nM at ΔTM rat FAAH, 10 to 100 nM at Human FAAH (MBPΔTMhFAAH), over 1000 nM at Rat MAGL (rMAGL) and over 1000 nM at Human MAGL (hMAGL).

As for `O=C(N1CC(N2CCC(Cc3ccccc3)CC2)C1)n1cnc(-c2ccccc2)c1` [Example 84, (3-(4-Benzylpiperidine)azetidin-1-yl)(4-phenyl[1H]imizadol-1-yl)methanone], the IC50 at ΔTM rat FAAH was 10 to 100 nM; at Human FAAH (MBPΔTMhFAAH), 10 to 100 nM; at Rat MAGL (rMAGL), over 1000 nM; at Human MAGL (hMAGL), over 1000 nM.

Take `O=C(N1CC(N2CCC(c3ccccc3)CC2)C1)n1cnc(-c2ccccc2)c1` [Example 85, (4-Phenyl-1H-imidazol-1-yl)(3-(4-phenylpiperidin-1-yl)azetidin-1-yl)methanone]: the IC50 on ΔTM rat FAAH was 10 to 100 nM; on Human FAAH (MBPΔTMhFAAH), 10 to 100 nM; on Rat MAGL (rMAGL) it was over 1000 nM; at Human MAGL (hMAGL) it was over 1000 nM.

As to `O=C(N1CC(OCc2ccc(Br)cc2)C1)n1cnc(-c2ccccc2)c1` [Example 86, (3-(4-Bromobenzyloxy)azetidin-1-yl)(4-phenyl-1H-imidazol-1-yl)methanone], the IC50 on ΔTM rat FAAH is 10 to 100 nM; on Human FAAH (MBPΔTMhFAAH), 10 to 100 nM; at Rat MAGL (rMAGL), over 1000 nM; at Human MAGL (hMAGL), over 1000 nM.

Consider `O=C(N1CC(OCc2ccc(Br)cc2)C1)n1cnc2ccccc21` [Example 87, (1H-Benzo[d]imidazol-1-yl)(3-(4-Bromobenzyloxy)azetidin-1-yl)methanone], for which the IC50 at ΔTM rat FAAH, at Human FAAH (MBPΔTMhFAAH), on Rat MAGL (rMAGL) and on Human MAGL (hMAGL) was 10 to 100 nM throughout.

Regarding `O=C(N1CCCCC1)N1CC(OCc2ccc(Br)cc2)C1` [Example 88], the IC50 at ΔTM rat FAAH, on Human FAAH (MBPΔTMhFAAH), on Rat MAGL (rMAGL) and on Human MAGL (hMAGL) was 10 to 100 nM each time.

As to `O=C(N1CC(N2CCC(c3ccccc3)CC2)C1)n1cccn1` [Example 89, (3-(4-Phenylpiperidin-1-yl)azetidin-1-yl)(1H-pyrazol-1-yl)methanone], the IC50 on ΔTM rat FAAH, at Human FAAH (MBPΔTMhFAAH), on Rat MAGL (rMAGL) and at Human MAGL (hMAGL) was 10 to 100 nM each time.

Regarding `O=C(N1CC(N2CCC(c3ccccc3)CC2)C1)n1cncn1` [Example 90], the half-maximal inhibitory concentration (IC50) on ΔTM rat FAAH, on Human FAAH (MBPΔTMhFAAH), at Rat MAGL (rMAGL) and at Human MAGL (hMAGL) was 10 to 100 nM throughout.

Regarding `O=C(N1CC(Sc2ccc(Br)cc2)C1)n1cncn1` [Example 91], the IC50 at ΔTM rat FAAH, at Human FAAH (MBPΔTMhFAAH), on Rat MAGL (rMAGL) and on Human MAGL (hMAGL) was 10 to 100 nM throughout.

Consider `NC(=O)c1cccc(-c2cccc(NC(=O)N3C[C@@H]4C[C@H]3CN4Cc3ccc4ccccc4n3)c2)c1` [Example 92, (1S,4S)—N-(3′-carbamoyl-[1,1′-biphenyl]-3-yl)-5-(quinolin-2-ylmethyl)-2,5-diazabicyclo[2.2.1]heptane-2-carboxamide], for which the IC50 at ΔTM rat FAAH, on Human FAAH (MBPΔTMhFAAH), on Rat MAGL (rMAGL) and on Human MAGL (hMAGL) was over 1000 nM each time.

Take `N#Cc1cccc(-c2cccc(NC(=O)N3C[C@@H]4C[C@H]3CN4Cc3ccc4ccccc4n3)c2)c1` [Example 93, (1S,4S)—N-(3′-cyano-[1,1′-biphenyl]-3-yl)-5-(quinolin-2-ylmethyl)-2,5-diazabicyclo[2.2.1]heptane-2-carboxamide]: the IC50 at ΔTM rat FAAH, at Human FAAH (MBPΔTMhFAAH), at Rat MAGL (rMAGL) and on Human MAGL (hMAGL) was over 1000 nM in each case.
